Test results: article PMC10224329, “Design, Synthesis, and Antiproliferative Activity of Benzopyran-4-One-Isoxazole Hybrid Compounds” (Molecules, 2023)
Entries after “also recorded” stand apart in the source; their conditions may differ.

Key:
[1] = tested on: human leukemia carcinoma (CCRF-CEM) cell lines; assay: MTS cell viability assay; type: cell-based; details: Homo sapiens, CCRF-CEM
Experimental: (§1) All the 14 hybrid compounds synthesized via Scheme 1, along with the intermediates and starting compounds, were tested in vitro for their cytotoxicity against a panel of 6 human cancer cell lines. This panel involved human leukemia carcinoma (CCRF-CEM), human ovarian adenocarcinoma (SKOV-3), human breast tumor (MDA-MB-231), human prostate cancer (PC-3), androgen-independent human prostate cancer (DU-145), and human renal carcinoma (iSLK) cell lines. The compounds were tested at a concentration of 25 μM for incubation periods of 24 and 72 h. Standard anticancer drug doxorubicin at a concentration of 5 μM and DMSO were used as controls in all the cell assays. The antiproliferative profile of benzopyran-4-one-isoxazole conjugates is shown in Figure 2 (cf. Supplementary Materials for the data obtained for intermediates and starting materials Figure S28.1–S28.6, page no. 71–76).
(§2) Cell viability assays were performed using the MTS protocol. The in vitro cytotoxicity of the conjugates was evaluated using six human cancer cell lines, one human normal kidney cell line, and one mammalian normal kidney cell line, which included human leukemia carcinoma cell lines (CCRF-CEM), human ovarian adenocarcinoma cell lines (SKOV-3), human breast tumor cell lines (MDA-MB-231), human prostate cancer cell lines (PC-3), androgen-independent human prostate cancer cell lines (DU-145), human renal carcinoma (iSLK), human embryonic kidney cell lines (HEK-293), and normal mammalian kidney cell line (LLCPK) to determine the toxicity of the synthesized conjugates. CCRF-CEM cells were seeded at 50,000 cells in 0.1 mL per well in 96-well plates, and in the case of SKOV-3, MDA-MB-231, PC-3, DU-145, HEK-293, and LLCPK cell lines, the cells were seeded at 5000 cells in 0.1 mL per well in 96-well plates. The CCRF-CEM cells were seeded in RPMI-1640 media containing 2mM L-glutamine, 1.5 g/L sodium bicarbonate, supplemented with fetal bovine serum (FBS) 10% media, SKOV-3, MDA-MB-231, and LLCPK cells were seeded in MEME media with Earle’s salts and sodium bicarbonate, without L-glutamine, supplemented with fetal bovine serum (FBS) 10%, PC-3 cells were seeded in DMEM:F-12 containing 1:1 mixture with L-glutamine with HEPES, supplemented with fetal bovine serum (FBS) 10%, and DU-145 and HEK-293 cells were seeded in DMEM containing 4500 mg/L glucose, L-glutamine, and sodium bicarbonate, without sodium pyruvate, supplemented with FBS (10%), 24 h prior to the experiment. The compounds at a final concentration of 25 µM (higher concentration stock solution prepared in DMSO) were added to each well in triplicate and incubated for 24 and 72 h at 37 °C in a humidified atmosphere (95% air and 5% CO2). The cell viability was then determined by measuring the absorbance of the formazan product at 490 nm using a microplate reader using a SpectraMax M2 microplate spectrophotometer, Molecular Devices, San Jose, CA, USA. The percentage of cell survival was calculated as [(OD value of cells treated with the test mixture of compounds) − (OD value of culture medium)]/[(OD value of control cells) − (OD value of culture medium)] × 100%. IC50 values of compounds were calculated using non-linear regression analysis in GraphPad Prism (Boston, MA, USA).

[2] = tested on: human ovarian adenocarcinoma (SKOV-3) cell lines; assay: MTS cell viability assay; type: cell-based; details: SK-OV-3, conjugates at 25 μM, 72 h, read-out: Inhibition of Cancer Cell Lines SKOV-3
Experimental: as §1, §2

[3] = tested on: human renal carcinoma (iSLK) cell lines; assay: MTS cell viability assay; type: cell-based; details: Homo sapiens; conjugates at 25 μM, 72 h; read-out: Inhibition of Cancer Cell Lines iSLK
Experimental: as §1, §2

[4] = tested on: human breast tumor (MDA-MB-231) cell lines; assay: MTS cell viability assay; type: cell-based
Experimental: as §1, §2

[5] = tested on: human prostate cancer (PC-3) cell lines; assay: MTS cell viability assay; type: cell-based
Experimental: as §1, §2

[6] = tested on: androgen-independent human prostate cancer (DU-145) cell lines; assay: MTS cell viability assay; type: cell-based
Experimental: as §1, §2

[7] = tested on: ABL1, c-Kit, c-Src, CDK2/cyclin A1, CSK, EGFR, mTOR/FRAP1, p38a/MAPK14, PKCa, and PI3K; assay: Protein kinase panel screen, overall; type: biochemical; details: single dose of 20 μM, all kinases screened
Experimental: Therefore, selected compound 5a was screened against several protein kinases to explore the potential of these hybrid compounds as kinase inhibitors. The screening of compound 5a was performed on a panel of 9 kinases, viz., ABL1, c-Kit, c-Src, CDK2/cyclin A1, CSK, EGFR, mTOR/FRAP1, p38a/MAPK14, PKCa, and PI3K, at a dose of 20 μM. The respective positive controls were used for each kinase, and the kinase reaction was performed at 200 μM ATP concentration for all the kinases except for PI3K, which was performed at 10 µM ATP (Table 2). […] It appeared that compound 5a containing a 3-position substitution with an isoxazole ring and a 4-position with a carbonyl group has a detrimental effect on kinase inhibition. Previously 3-substituted benzopyran compound with a short alkyl chain of urea (NH-CO-NH-Et/Me/iPr) was reported with Abl kinase inhibitory activity in the range of 4–27 μM [36]. […] Due to prominent antiproliferative activity, these compounds may have some other targets for anticancer activity.
Compound 5a was tested at a single dose of 20 μM against 9 kinases, viz., Abl1, c-Kit, c-Src, CDK2/cyclin A1, CSK, EGFR, mTOR/FRAP1, p38a/MAPK14, PKCa, and PI3K using our previously reported protocol in duplicate by Reaction Biology Corporation. […]

[8] = tested on: panel of cancer cell lines (CCRF-CEM, SKOV-3, MDA-MB-231, PC-3, DU-145, iSLK); assay: MTS cell viability assay, summary over the cancer cell line panel; type: cell-based; details: Homo sapiens
Experimental: as §1, §2

[9] = average of three independent tests in triplicate

## Cc1noc(C)c1C(=O)OCc1coc2ccccc2c1=O [Compound 5a, (4-Oxo-4H-1-benzopyran-3-yl)methyl 3,5-dimethylisoxazole-4-carboxylate]
[1]; conjugates at 25 μM, 72 h, read-out: Inhibition of Cancer Cell Lines CCRF-CEM
  inhibition at 25 µM: 81%
[1]; [9]
  IC50: 11.6 µM
[2]
  inhibition at 25 µM: 69%
[3]
  inhibition at 25 µM: 44%
[4]; [9]
  IC50: 5.6 µM
[4]; conjugates at 25 μM, 72 h, read-out: Inhibition of Cancer Cell Lines MDA-MB-231
  inhibition at 25 µM: 78%
[5]; PC3, average of three independent tests in triplicate
  IC50: 17.8 µM
[5]; conjugates at 25 μM, 72 h
  inhibition at 25 µM: 70%
[6]; [9]
  IC50: 15.3 µM
[6]; conjugates at 25 μM, 72 h
  inhibition at 25 µM: 73%
[7]
  kinase inhibitory activity (in words): inactive; also recorded: did not show protein tyrosine kinase inhibitory activity
[8]; 25 μM, 72 h, range over six cancer cell lines, read-out: percentage of inhibition (range over the cancer cell lines)
  inhibition at 25 µM: 44 to 81%
[8]; range over CCRF-CEM, MDA-MB-231, PC3, DU-145, read-out: IC50 against all the cancer cell lines (range)
  IC50: 5.6 to 17.8 µM
